Article PMC10510324, “A Biomimetic C-Terminal Extension Strategy for Photocaging Amidated Neuropeptides” (Journal of the American Chemical Society, 2023)

Legend:
[1] = cited from earlier work
Description: With the target NPP-caged peptides in hand, we examined their photochemical reactivity in cell-compatible aqueous solution (phosphate-buffered saline, pH 7.2). […] Collectively, they were consumed 25–40 ...

[2] = molecular target: T1, CCK2R (Mus musculus, UniProt P56481); assay: Whole-cell recording of membrane currents, PV interneurons of hippocampal CA1, acute brain slices; assay type: cell-based; details: antagonist 1 μM
T1 construct: from tissue; host or cells: acute mouse brain slices, PV interneurons of hippocampal CA1 (PvalbCre; Ai14 mice)
T1 sequence (P56481 1-453): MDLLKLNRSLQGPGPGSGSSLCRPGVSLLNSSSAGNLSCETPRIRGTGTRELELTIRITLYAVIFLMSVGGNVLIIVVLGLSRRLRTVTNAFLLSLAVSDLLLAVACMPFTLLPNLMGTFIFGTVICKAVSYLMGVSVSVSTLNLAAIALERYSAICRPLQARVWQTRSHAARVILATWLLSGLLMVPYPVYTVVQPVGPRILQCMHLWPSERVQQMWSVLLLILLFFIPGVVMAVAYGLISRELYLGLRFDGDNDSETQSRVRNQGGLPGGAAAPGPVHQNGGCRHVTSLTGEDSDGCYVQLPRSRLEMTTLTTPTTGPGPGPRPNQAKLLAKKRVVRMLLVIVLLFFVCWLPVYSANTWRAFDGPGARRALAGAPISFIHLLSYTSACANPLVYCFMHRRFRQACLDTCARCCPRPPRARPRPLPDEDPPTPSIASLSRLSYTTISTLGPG
Description: Photoactivatable neuropeptides are powerful tools that can drive studies into the mechanisms of endogenous receptor signaling in acute brain slices.[3],[8],[40] To determine if NPP-caged peptides are compatible with such experiments, we established electrophysiological assays for measuring the activation of GRPR, OTR, NK1R, and CCK2R in acute brain slices taken from transgenic mice. These assays involved whole cell recordings of membrane currents from genetically defined neurons located in different brain regions where endogenous receptor activation produces inward, excitatory currents that facilitate action potential firing. Neuropeptide receptor-expressing cells were identified for fluorescence-guided, targeted electrophysiological recordings using transgenic mice that contain transgenes encoding Cre-recombinase under a promotor that is specific to the cell of interest, as well as a Cre-dependent tdTomato fluorescent protein via the Ai14 (Rosa26-lsl-tdTomato) reporter strain. […]
(A) Average inward currents over time after bath application of GRP(14-27)-NPP (3 μM, n = 5 cells from 4 mice) or GRP(14-27) (300 nM, n = 5 from 4 mice), recorded from fluorescently labeled VIP interneurons in layer 1 of the motor cortex. Data are expressed as the mean ± SEM. […] Data are expressed as the mean ± SEM. […] Data are expressed as the mean ± SEM. […] Data are expressed as the mean ± SEM. […]

[3] = test system: locus coeruleus; details: bath applied; cited from earlier work
Description: Although extracellular peptidases are known to limit peptide concentrations in the nervous system, how they shape the temporal dynamics of neuropeptide signaling in the brain is poorly understood. For example, rapid proteolysis by peptidases localized near peptide receptors might limit the peak concentration of peptide and thus the degree of receptor activation.

[4] = test system: its receptors (GRP receptors); details: cited from earlier work
Description: This motif is associated with immature neuropeptides that are likely not intended for receptor binding. […] We therefore reasoned that inclusion of the entire C-terminal amidation sequence might be particularly effective at reducing binding affinity if incorporated into C-terminally caged peptides, especially due to the presence of bulky, positively charged amino acids found in the dibasic motif. To mimic the proneuropept ...

**Q.** Which quantum yield [1] does the source give for `COc1ccc([N+](=O)[O-])c2c1CCN2C(=O)CC[C@H](N)C(=O)O` [MNI-glutamate, 4-Methoxy-7-nitroindolinyl-caged-L-glutamate] here?
**A.** Its quantum yield is 0.065.

**Q.** With `Cc1cccc(NC(=O)N[C@@H]2N=C(c3ccccc3)c3ccccc3N(CC(=O)c3ccccc3C)C2=O)c1` [YM022, (R)-N-[2,3-Dihydro-1-[2-(2-methylphenyl)-2-oxoethyl]-2-oxo-5-phenyl-1H-1,4-benzodiazepin-3-yl]-N'-(3-methylphenyl)-urea] as the molecule, how does the “block of light-evoked CCK(8S)-NPP current” value [2] read?
**A.** Its value is “strongly attenuated”.

**Q.** Which “increase of potency by peptidase inhibition” value [3] does the source give for enkephalin here?
**A.** Its value is 10 fold.

B1: progastrin-releasing peptide: prohormone of gastrin-releasing peptide, literature finding (protein, UniProt P07492 24-148, looked up)
pro-form: VPLPAGGGTVLTKMYPRGNHWAVGHLMGKKSTGESSSVSERGSLKQQLREYIRWEEAARNLLGLIEAKENRNHQPPQPKALGNQQPSWDSEDSSNFKDVGSKGKVGRLSAPGSQREGRNPQLNQQ
modifications: pro-form
notes: prohormone of gastrin-releasing peptide, literature finding
**Q.** With B1 as the molecule, how does the receptor binding [4] read?
**A.** Its receptor binding is “does not bind”.
